From patent publication EP1016409B1, “FREEZE DRIED COMPOSITION COMPRISING GLYCOSPHINGOLIPIDS” (KIRIN BEER KABUSHIKI KAISHA, priority 1997, dated 1998)

Key:
Assay type in all cases: physicochemical
[1] = Cooling condition after dissolution with heating 1: turbidity; details: Polysorbate 20 0.5%, histidine 0.75%, sucrose 5.6%, cooling 73°C → 30°C; for Turbidity After filtration / Turbidity Before filtration: 800 mg KRN7000 in 4 liters; for Turbidity After filtration: 0.22 µm filter; for Turbidity After filtration / Turbidity Lyophilized composition: kaolin 1 µg/ml = turbidity 1.00; for Turbidity Before filtration: kaolin 1 µg/ml = turbidity 1.00, 660 nm; for Turbidity Lyophilized composition: reconstituted after 3 hours at room temperature (25°C)
Method: First, Polysorbate 20 was dissolved in distilled water in a concentration of 0.5%, histidine in a concentration of 0.75%, and sucrose in a concentration of 5.6%. Next, 800 mg of the active component (KRN7000) was weighed and stirred in 4 liters of the solvent under heating at 73°C for 30 minutes in order to form a solution. After dissolution, the mixture was divided into about 500 ml portions, cooled with stirring from 73°C to 30°C (6 minutes), from 73°C to 30°C (23 minutes), and from 73°C to 30°C (120 minutes). After cooling, the mixtures were filtered through a 0.22 µm filter, and transparent colorless glass vials having a volume of 5 ml were charged with a 1 ml portion of each of a variety of solutions thus obtained and subjected to lyophilization. Lyophilization was carried out under the condition of preliminary freezing at -50°C for 5 hours and drying at -15°C for 48 hours, 10°C for 12 hours, and finally at 25°C for 7 hours to give the lyophilized product. The degree of vacuum was set at 0.1 Torr or less during drying step.
The turbidity of the solutions prepared respective cooling conditions before or after the filtration step, and the lyophilized composition thus obtained which were reconstituted after leaving standing at room temperature (25°C) for 3 hours from the lyophilization step, were measured. In this connection, the lyophilized composition was reconstituted in 1 ml of distilled water for injection, left standing for 30 minutes, and turbidity was measured when the foams generated on reconstitution disappeared.
(§1) The turbidity was measured by the following method: various dilutions including 50-fold dilution (kaolin 2 µg/ml, turbidity 2.00), 100-fold dilution (kaolin 1 µg/ml, turbidity 1.00), and 200-fold dilution (kaolin 0.5 µg/ml, turbidity 0.50) were prepared by diluting the turbidity standard (kaolin, […]) with distilled water. A calibration curve was made by measuring the absorbance at a wave length of 660 nm with a control of distilled water and the various dilutions in a spectrophotometer (HITACHI U-3210). Next, the absorbance of the solutions was measured under the same condition as above to calculate the turbidity of the solutions.

[2] = Cooling condition after dissolution with heating 2: turbidity after storage; details: lyophilized composition (Polysorbate 20 0.5%, histidine 0.75%, sucrose 5.6%) stored at 50°C for 1 week, reconstituted
Method: First, Polysorbate 20 was dissolved in distilled water in a concentration of 0.5%, histidine in a concentration of 0.75%, and sucrose in a concentration of 5.6%. Next, 800 mg of the active component (KRN7000) was weighed and stirred in 4 liters of the solvent under heating at 73°C for 30 minutes in order to form a solution. After dissolution, the mixture was divided into about 500 ml portions, cooled rapidly - gradually with stirring under the following six rates:
After cooling, the mixtures were filtered through a 0.22 µm filter, and transparent colorless glass vials having a volume of 5 ml were charged with a 1 ml portion of each of a variety of solutions thus obtained and subjected to lyophilization. Lyophilization was carried out under the condition of preliminary freezing at -50°C for 5 hours and drying at -15°C for 48 hours, 10°C for 12 hours, and finally at 25°C for 7 hours to give the lyophilized product. The degree of vacuum was set at 0.1 Torr or less during drying step.
After lyophilization, the lyophilized composition thus obtained was stored at 50°C for 1 week, and the turbidity of the reconstituted solution was measured. In this connection, the turbidity of the lyophilized composition was used which was reconstituted in 1 ml of distilled water for injection and left standing for 30 minutes, and turbidity was measured when the foams generated on reconstitution disappeared.
as §1

[3] = Lyophilized preparations with Polysorbate 20 alone: re-solubility immediately after lyophilization; details: KRN7000 200 µg/ml, no excipient, reconstituted in 1 ml distilled water for injection
Method: Next, 20 mg of the active component (KRN7000) was weighed and stirred in 100 ml of the Polysorbate solutions having a variety of concentrations in a heated bath to 80°C for 20 minutes in order to form a solution. After cooling with running water, the mixture was filtered through a 0.22 µm filter, and transparent colorless glass vials having a volume of 5 ml were charged with a 1 ml portion of each of a variety of solutions and subjected to lyophilizaiton. Lyophilization was carried out under the condition of preliminary freezing at -40°C for 2 hours and drying at -20°C for 24 hours, 10°C for 12 hours, and finally at 25°C for 5 hours to give the lyophilized product. The degree of vacuum was set at 0.1 Torr or less during drying step.
After the lyophilization step, the lyophilized composition was reconstituted in 1 ml of distilled water for injection, left standing for 30 minutes, and solubility was judged when the foams generated on reconstituiton disappeared.
The solubility was judged by cleaning the outside of the vial and placing it beneath the white light source in a darkroom for observation with naked eye at the position of a luminous intensity of about 5,000 lux. When the sample was clear with no precipitates, it was judged that the active component was dissolved.

In the case of `CCCCCCCCCCCCCCCCCCCCCCCCCC(=O)N[C@@H](CO[C@H]1O[C@H](CO)[C@H](O)[C@H](O)[C@H]1O)[C@H](O)[C@H](O)CCCCCCCCCCCCCC` [KRN7000, (2S,3S,4R)-1-(α-D-galactopyranosyloxy)-2-hexacosanoylamino-3,4-octadecanediol], the “Turbidity After filtration” value ([1]; 6 minutes) is reported as 0.13, the “Turbidity Before filtration” value ([1]; 6 minutes) is reported as 0.23 and the “Turbidity After filtration” value ([1]; 23 minutes) is reported as 0.15. The “Turbidity Before filtration” value ([1]; 23 minutes) was 0.58, the “Turbidity After filtration” value ([1]; 120 minutes) was 0.16 and the “Turbidity Before filtration” value ([1]; 120 minutes) was 0.64. The “Turbidity Lyophilized composition” value ([1]; 6 minutes) was 0.24, the “Turbidity Lyophilized composition” value ([1]; 23 minutes) was 0.36 and the “Turbidity Lyophilized composition” value ([1]; 120 minutes) was 0.36. For the same compound, the Turbidity ([2]; cooling ① 73°C → 30°C, 4 minutes (10.75°C/min)) was 2.08, the Turbidity ([2]; cooling ② 73°C → 30°C, 6 minutes (7.17°C/min)) was 2.67 and the Turbidity ([2]; cooling ③ 73°C → 30°C, 7 minutes (6.14°C/min)) was 3.31. The Turbidity ([2]; cooling ④ 73°C → 30°C, 10 minutes (4.30°C/min)) was 3.80, the Turbidity ([2]; cooling ⑤ 73°C → 30°C, 23 minutes (1.87°C/min)) was 6.44 and the Turbidity ([2]; cooling ⑥ 73°C → 30°C, 120 minutes (0.36°C/min)) was 18.84. The “Re-solubility immediately after lyophilization (by naked eye)” value (“Re-solubility immediately” below) ([3]; Polysorbate 20 0.5%) was “+ (+ not dissolved (or deposited))”, the “Re-solubility immediately” value ([3]; Polysorbate 20 1.0%) was “+ (+ not dissolved (or deposited))” and the “Re-solubility immediately” value ([3]; Polysorbate 20 2.0%) was “+ (+ not dissolved (or deposited))”.
